Series [1] relates to escherichia coli Kauffman 0-1. In words: MIC against escherichia coli Kauffman 0-1. The format is cell-based. An excerpt:
(§1) Now, for illustrating the excellent pharmacological effects of the compounds of this invention, the values of MIC (γ/ml) of the compounds against various bacteria are shown in the following table, the compounds of this invention are shown by example numbers.
7: escherichia coli Kauffman 0-1

Series [2] relates to pseudomonas aeruginosa ATCC 8689. Description: MIC against pseudomonas aeruginosa ATCC 8689. The following applies: ATCC8689. The format is cell-based.
Excerpt: as §1
4: pseudomonas aeruginosa ATCC 8689

For series [3], the system named is Bacillus subtilis ATCC 6633. In words: MIC against Bacillus subtilis ATCC 6633. The format is cell-based. Conditions: ATCC6633; Bacillus subtilis ATCC 6633; read-out: MIC.
Excerpt: as §1
14: Bacillus subtilis ATCC 6633

For series [4], the system named is pseudomonas aeruginosa 99 (Gentamycin resistant). In words: MIC against pseudomonas aeruginosa 99 (Gentamycin resistant). The format is cell-based.
Excerpt: as §1
5: pseudomonas aeruginosa 99 (Gentamycin resistant)

The test system of another series is Proteus vulgaris OXK US. Description: MIC against Proteus vulgaris OXK US. It counts as cell-based.
Excerpt: as §1
1: Proteus vulgaris OXK US

Another series has as its system salmonella typhi H901W. Description: microbe, parasite or virus in culture. It counts as cell-based. Conditions: Salmonella enterica.
Series [5] concerns micrococcus flavus ATCC 10240. In words: MIC against micrococcus flavus ATCC 10240. The format is cell-based. The following applies: ATCC10240; micrococcus flavus ATCC 10240; read-out: MIC.
Excerpt: as §1

In series [6] the test system is bacillus megatherium 10778. In words: MIC against bacillus megatherium 10778. It counts as cell-based. The following applies: bacillus megatherium 10778; read-out: MIC.
Excerpt: as §1

For series [7], the system named is Pseudomonas ovalis IAM 1002. Description: MIC against Pseudomonas ovalis IAM 1002. It counts as cell-based. Conditions: Pseudomonas putida, IAM1002.
Excerpt: as §1
6: Pseudomonas ovalis IAM 1002

Another series concerns Staphylococcus Onuma. Description: MIC against Staphylococcus Onuma. It counts as cell-based.
Excerpt: as §1

A further series concerns proteus vulgaris OX 19US. In words: MIC against proteus vulgaris OX 19US. The format is cell-based. The following applies: OX19US.
Excerpt: as §1
2. proteus vulgaris OX 19US

Series [8] deals with staphylococcus aureus 209P. Description: MIC against staphylococcus aureus 209P. The following applies: read-out: MIC. The format is cell-based.
Excerpt: as §1
16: staphylococcus aureus 209P

Series [9] relates to staphylococcus Shimanishi. Description: MIC against staphylococcus Shimanishi. It counts as cell-based.
Excerpt: as §1
17. staphylococcus Shimanishi

The nature of series [10]: water solubility, naked-eye observation of solutions. The format is physicochemical. An excerpt: Then, the experimental results showing the excellent water solubility of the compounds of this invention are illustrated in the following table, the results being the observation results by the naked eyes of the solutions thereof in each concentration as shown in the table.

For a further series, the system named is Shigella sonnei II 37148. In words: MIC against Shigella sonnei II 37148. It counts as cell-based. The following applies: II37148.
Excerpt: as §1

Series [11] has as its system Shigella flexnori 2a 1675. Description: MIC against Shigella flexnori 2a 1675. Conditions: 2A1675. It counts as cell-based.
Excerpt: as §1

The next series relates to salmonella enteritidis. Description: MIC against salmonella enteritidis. It counts as cell-based. Conditions: Salmonella enterica.
Excerpt: as §1
10: salmonella enteritidis

In series [12] the test system is proteus mirabilis IFM OM-19. Description: MIC against proteus mirabilis IFM OM-19. The following applies: IFMOM19. It counts as cell-based.
Excerpt: as §1
3. proteus mirabilis IFM OM-19

Series [13] has as its system Klebsiella pneumoniae ATCC 10031. In words: MIC against Klebsiella pneumoniae ATCC 10031. It counts as cell-based. Conditions: ATCC10031.
Excerpt: as §1
8: Klebsiella pneumoniae ATCC 10031

[14] abbreviates: escherichia coli Kauffman 0-1, read-out: MIC.
Setting [15] is: Proteus vulgaris OXK US, read-out: MIC.
Setting [16] is: Staphylococcus Onuma, read-out: MIC.
The mark [17] stands for this setting: proteus vulgaris OX 19US, read-out: MIC.
Where [18] appears, read: staphylococcus Shimanishi, read-out: MIC.
[19] abbreviates: salmonella enteritidis, read-out: MIC.
Setting [20] is: Klebsiella pneumoniae ATCC 10031, read-out: MIC.
Setting [21] is: pseudomonas aeruginosa 99 (Gentamycin resistant), read-out: MIC.
[22] abbreviates: Pseudomonas ovalis IAM 1002, read-out: MIC.
The mark [23] stands for this setting: pseudomonas aeruginosa ATCC 8689, read-out: MIC.

Values after ≈ are worked out from the molar mass of the structure shown. Where two headings read alike, the source gives them in different places. Some results are limits rather than exact numbers.

`Cc1nc(S)cc(SCC2=C(C(=O)O)N3C(=O)[C@@H](NC(=O)[C@H](NC(=O)c4cnccc4O)c4ccccc4)[C@H]3SC2)n1` [Example 2, 7-[D-α-(4-hydroxynicotinoylamido)-α-phenylacetamido]-3-(2-methyl-4-mercaptopyrimidin-6-yl)thiomethyl-Δ ^3-cephem-4-carboxylicacid]: the MIC in [1] (setting [14]) turned out to be 6.25 µg/mL (≈ 10 µM); in [2] (Pseudomonas aeruginosa), 12.5 µg/mL (≈ 20 µM); in series [3] it was 0.39 µg/mL (≈ 0.624 µM); in series [4] (Pseudomonas aeruginosa), 12.5 µg/mL (≈ 20 µM); in the series with Proteus vulgaris OXK US (setting [15]), 0.19 µg/mL (≈ 0.304 µM); in the series on salmonella typhi H901W, 0.19 µg/mL (≈ 0.304 µM). For the same molecule, the MIC in [5] turned out to be 3.13 µg/mL (≈ 5.01 µM); in series [6], 0.19 µg/mL (≈ 0.304 µM); in series [7], 12.5 µg/mL (≈ 20 µM); with Staphylococcus Onuma (setting [16]) it was 6.25 µg/mL (≈ 10 µM); with proteus vulgaris OX 19US (setting [17]), 1.56 µg/mL (≈ 2.5 µM); in [8], 0.39 µg/mL (≈ 0.624 µM). Further, the MIC in series [9] (setting [18]) came to 3.13 µg/mL (≈ 5.01 µM); in the series with Shigella sonnei II 37148 it was 12.5 µg/mL (≈ 20 µM); in series [11], 12.5 µg/mL (≈ 20 µM); in the series with salmonella enteritidis (setting [19]) it was 0.19 µg/mL (≈ 0.304 µM); in series [12] it was 0.39 µg/mL (≈ 0.624 µM); in series [13] (setting [20]), 3.13 µg/mL (≈ 5.01 µM). In addition, the “water solubility (appearance of solution by the naked eyes)” value in [10] (concentration 1%) is on record as “clear”; in [10] (concentration 5%) it was “clear”; in [10] (concentration 10%), “clear”; in series [10] (concentration 20%), “slightly turbid”.
Take `O=C(O)C1=C(CSc2ccc(S)nn2)CS[C@@H]2[C@H](NC(=O)[C@H](NC(=O)c3cnccc3O)c3ccccc3)C(=O)N12` [Example 1, 7-[D-α-(4-hydroxynicotinoylamido)-α-phenylacetamido]-3-(3-mercaptopyridazin-6-yl)thiomethyl-Δ^3-cephem-4-carboxylic acid]: the MIC in series [1] (Escherichia coli) came out at 6.25 µg/mL (≈ 10.2 µM); in series [2] (Pseudomonas aeruginosa), 100 µg/mL (≈ 164 µM); in [3] it was 0.39 µg/mL (≈ 0.639 µM); in series [4] (setting [21]) it was 50 µg/mL (≈ 81.9 µM); in the series with Proteus vulgaris OXK US (setting [15]) it was 0.19 µg/mL (≈ 0.311 µM); with salmonella typhi H901W, 0.39 µg/mL (≈ 0.639 µM). The MIC in [5] amounted to 3.13 µg/mL (≈ 5.13 µM); in [6], 0.39 µg/mL (≈ 0.639 µM); in [7] (setting [22]), 25 µg/mL (≈ 40.9 µM); against Staphylococcus Onuma (Staphylococcus), 6.25 µg/mL (≈ 10.2 µM); in the series with proteus vulgaris OX 19US (setting [17]), 0.78 µg/mL (≈ 1.28 µM); in series [8], 0.39 µg/mL (≈ 0.639 µM). The MIC in series [9] (setting [18]) was found to be 1.56 µg/mL (≈ 2.55 µM); against Shigella sonnei II 37148 it was 12.5 µg/mL (≈ 20.5 µM); in series [11], 6.25 µg/mL (≈ 10.2 µM); in the series with salmonella enteritidis (ENTERITIDIS) it was 0.39 µg/mL (≈ 0.639 µM); in [12] it was 0.39 µg/mL (≈ 0.639 µM); in [13] (Klebsiella pneumoniae), 6.25 µg/mL (≈ 10.2 µM).
As for `Cc1nnc(SCC2=C(C(=O)O)N3C(=O)[C@@H](NC(=O)Cn4cnnn4)[C@H]3SC2)s1` [Cephazolin, reference compound], the MIC in series [1] (Escherichia coli) was 1.56 µg/mL (≈ 3.43 µM); in [2] (setting [23]), > 100 µg/mL; in series [3] it was 0.19 µg/mL (≈ 0.418 µM); in series [4] (setting [21]), > 100 µg/mL; against Proteus vulgaris OXK US (Proteus vulgaris), 3.13 µg/mL (≈ 6.89 µM); with salmonella typhi H901W it was 1.56 µg/mL (≈ 3.43 µM). The MIC was 0.19 µg/mL (≈ 0.418 µM) in series [5]; 0.19 µg/mL (≈ 0.418 µM) in series [6]; > 100 µg/mL in [7] (setting [22]); 1.56 µg/mL (≈ 3.43 µM) against Staphylococcus Onuma (Staphylococcus); 25 µg/mL (≈ 55 µM) with proteus vulgaris OX 19US (setting [17]); 0.19 µg/mL (≈ 0.418 µM) in series [8]. Further, the MIC in series [9] (setting [18]) was 0.78 µg/mL (≈ 1.72 µM); in the series on Shigella sonnei II 37148, 1.56 µg/mL (≈ 3.43 µM); in series [11], 1.56 µg/mL (≈ 3.43 µM); with salmonella enteritidis (ENTERITIDIS), 1.56 µg/mL (≈ 3.43 µM); in series [12] it was 6.25 µg/mL (≈ 13.8 µM); in series [13] (Klebsiella pneumoniae) it was 1.56 µg/mL (≈ 3.43 µM).
Consider `Cc1c(S)sc(SCC2=C(C(=O)O)N3C(=O)[C@@H](NC(=O)[C@H](NC(=O)c4cnccc4O)c4ccccc4)[C@H]3SC2)c(C)c1=O` [Example 3, 7-[D-α-(4-hydroxynicotinoylamido)-α-phenylacetamido]-3-(3,5-dimethyl-6-mercapto-4-oxo-4H-thiopyran-2-yl)thiomethyl-Δ^3-cephem-4-carboxylic acid], for which the MIC in [1] (Escherichia coli) was 12.5 µg/mL (≈ 18.6 µM); in [2] (Pseudomonas aeruginosa), 12.5 µg/mL (≈ 18.6 µM); in series [3] it was 0.78 µg/mL (≈ 1.16 µM); in series [4] (Pseudomonas aeruginosa), 12.5 µg/mL (≈ 18.6 µM); in the series with Proteus vulgaris OXK US (setting [15]), 0.19 µg/mL (≈ 0.283 µM); against salmonella typhi H901W it was 3.13 µg/mL (≈ 4.67 µM). In addition, the MIC was found to be 1.56 µg/mL (≈ 2.33 µM) in [5]; 0.19 µg/mL (≈ 0.283 µM) in [6]; 6.25 µg/mL (≈ 9.32 µM) in [7]; 12.5 µg/mL (≈ 18.6 µM) against Staphylococcus Onuma (Staphylococcus); 0.39 µg/mL (≈ 0.581 µM) in the series on proteus vulgaris OX 19US (setting [17]); 1.56 µg/mL (≈ 2.33 µM) in [8]. The MIC worked out at 6.25 µg/mL (≈ 9.32 µM) in series [9] (Staphylococcus); 12.5 µg/mL (≈ 18.6 µM) in the series on Shigella sonnei II 37148; 6.25 µg/mL (≈ 9.32 µM) in series [11]; 0.78 µg/mL (≈ 1.16 µM) in the series with salmonella enteritidis (setting [19]); 0.78 µg/mL (≈ 1.16 µM) in series [12]; 12.5 µg/mL (≈ 18.6 µM) in series [13] (Klebsiella pneumoniae). Further, the “water solubility (appearance of solution by the naked eyes)” value in series [10] (concentration 1%), in series [10] (concentration 5%), in series [10] (concentration 10%) and in [10] (concentration 20%) was “clear” each time.
As to `Nc1nc(S)cc(SCC2=C(C(=O)O)N3C(=O)[C@@H](NC(=O)[C@H](NC(=O)c4cnccc4O)c4ccccc4)[C@H]3SC2)n1` [Example 6], the MIC in [1] (setting [14]) amounted to 6.25 µg/mL (≈ 9.99 µM); in [2] (setting [23]), 100 µg/mL (≈ 160 µM); in series [3], 0.78 µg/mL (≈ 1.25 µM); in [4] (setting [21]), 50 µg/mL (≈ 79.9 µM); with Proteus vulgaris OXK US (setting [15]), 0.19 µg/mL (≈ 0.304 µM); with salmonella typhi H901W, 0.19 µg/mL (≈ 0.304 µM). Moreover, the MIC in [5] amounted to 3.13 µg/mL (≈ 5 µM); in series [6], 0.78 µg/mL (≈ 1.25 µM); in series [7], 12.5 µg/mL (≈ 20 µM); in the series on Staphylococcus Onuma (setting [16]) it was 6.25 µg/mL (≈ 9.99 µM); with proteus vulgaris OX 19US (Proteus vulgaris), 12.5 µg/mL (≈ 20 µM); in series [8] it was 0.78 µg/mL (≈ 1.25 µM). Further, the MIC in [9] (setting [18]) is 3.13 µg/mL (≈ 5 µM); in the series with Shigella sonnei II 37148, 12.5 µg/mL (≈ 20 µM); in [11] it was 12.5 µg/mL (≈ 20 µM); in the series with salmonella enteritidis (setting [19]), 0.39 µg/mL (≈ 0.623 µM); in [12] it was 1.56 µg/mL (≈ 2.49 µM); in series [13] (setting [20]) it was 6.25 µg/mL (≈ 9.99 µM).

The values are drawn from patent US4036834A, “Derivatives of 7-(α-hydroxy-substituted pyridyl carboxamido-α p h Δ^3 -cephem-4-carboxylic acid” (Yamanouchi Pharmaceutical Co., Ltd., priority 1974, dated 1977).
